Literature values, collected in patent publication US20090061012A1 (priority 2007, published 2009).

Tests used:
Conditions in all cases: in vivo
[1] = tested on: Lemon, Blue, and Great White Sharks
sharks [2] = tested on: sharks
sharks [3] = tested on: sharks; remark: listed apart in the source
[4] = tested on: shark's respiratory systems via the gill rakes

| Compound | repelling sharks relative to pardaxin [1] | other results |
| --- | --- | --- |
| CCCCCCCCCCCCOS(=O)(=O)[O-].[Li+] [LLS, lithium lauryl sulfate] | even better than pardaxin |  |
| CCCCCCCCCCCCOS(=O)(=O)[O-].[Na+] [SDS, sodium dodecyl sulphate] |  | concentration at which effective as a repellent (sharks [2]): 43.6 ppm |
| CCCCCCCCCCCCOS(=O)(=O)[O-].[Na+] [SLS, sodium lauryl sulfate] | even better than pardaxin | effectiveness in surrounding-cloud mode dispersions (sharks [3]): not effective |
| CCCCCCCCCCCCCCCCCCOS(=O)(=O)[O-].[Na+] [SOS, sodium octadecyl sulphate] | even better than pardaxin |  |
| pardaxin |  | repellent impact on sharks [4]: significant repellent impact |
